Measurements taken from patent US8344022B2, “Vaginal health products” (Kimberly-Clark Worldwide, Inc., priority 2004, dated 2013).
“And” between values parts separate entries of the source, which are not always exact repeats. Equal entries are not always repeated.

Legend:
stratum corneum = assay: Dansyl chloride cell renewal study in healthy female volunteers; format: in vivo, human
From the text: The stratum corneum renewal time is the time taken for the whole thickness of the stratum corneum to be exfoliated and replaced by new cells from the dividing epidermis. This renewal time is a fundamental indicator of skin health. […] See Jansen L H, Hojyo-Tomoko M T, Kligman A M., Improved fluorescence staining technique for estimating turnover of the human stratum corneum, Br J Dermatol., 90, 9-12, 1974; Ridge B D, Batt M D, Palmer H E, Jarrett A, The dansyl chloride technique for stratum corneum renewal as an indicator of changes in epidermal mitotic activity following topical treatment., Br J Dermatol., 118, 167-74, 1988; Grove G L, Kligman A M, Age-associated changes in human epidermal cell renewal., J Geron., 38, 137-142, 1983. The time required for the dye to disappear is therefore an indication of the turnover time of the stratum corneum. Therefore, any differences in the time required for the dye to disappear from treated and non-treated sites can be considered to be an expression of that product's ability to enhance epidermal renewal.
A dansyl chloride cell renewal study was conducted in healthy female volunteers ranging from 43-64 years of age. The study consisted of a two-week treatment period during which time the products were applied topically twice daily, including on weekend days, to the test sites. The area of application was designated, approximately 5 cm×10 cm on the upper inner arm. The other arm served as a control with no product application. […] Eight females received jasmonic acid and seven females received gibberellic acid.
The time required for a marker dye to disappear was used as the measure of cell renewal rate.

[1] = system: collagen production in human skin fibroblast cell line; assay: Collagen production by human skin fibroblasts (Takara EIA MK101); format: cell-based; conditions: for Collagen Production, Mean (absorbance at 450 nm) / Collagen Production, Median (absorbance at 450 nm): 48 hours, n=2
Experimental: The cells were first grown in a 96-well assay system using Dulbecco's Modified Eagle's Medium (DMEM) with 10% fetal bovine serum (FBS) both purchased from Sigma Chemical Co, St. Louis, Mo. Serum-free DMEM was used as a control.
The assay was done by using the recommended 20 ul of the supernatant from each well of the 96-well plate. Standard buffer and stop solutions were freshly prepared before running the assay. 100 ul of antibody-POD conjugate solution (supplied with the kit) was added into the wells using pre antibody coated 96 well plate (supplied with the kit). 20 ul of standard and test solutions (from the other 96-well plate containing fibroblasts) were added to appropriate wells. Plate was mixed gently, sealed and incubated for three hrs. at 37° C.
After incubation each well was washed carefully four times with PBS buffer (400 ul). All the wells were completely emptied at the end of washing from any liquid.
100 ul of substrate solution (hydrogen peroxide and tetramethylbenzidine in a buffer solution, supplied with the kit) was added to each well and the plate was incubated for 15 minutes. At this point 100 ul of stop solution (freshly prepared 1N H2SO4) was added to each well in the same order as substrate. The plate was gently mixed and absorbance was read at 450 nm.

[2] = system: fibronectin production in human skin fibroblast cell line; assay: Fibronectin production by human skin fibroblasts (Takara EIA MK115); format: cell-based; conditions: for fibronectin production, Mean (absorbance at 450 nm) / fibronectin production, Median (absorbance at 450 nm): 48 hours, n=2
Experimental: The cells were first grown in a 96-well assay system using Dulbecco's Modified Eagle's Medium (DMEM) with 10% fetal bovine serum (FBS) both purchased from Sigma Chemical Co, St. Louis, Mo. Serum-free DMEM was used as a control. […] The fibronectin assay was performed using the recommended 100 μl of the supernatant from each well of the 96-well plate. Standard buffer and stop solutions were freshly prepared before running the assay. A pre-antibody-coated 96 well plate (provided with the kit) was used to transfer the test samples and control. The plate was mixed, sealed and incubated for 1 hour at 37° C. All the wells were washed after removing sample solutions, 3 times (300 μl) with washing buffer. 100 ul of antibody-POD conjugate solution was added into the wells. Plate was mixed, sealed and incubated for one hour at 37° C. Solutions were removed and the wells were washed 3 times with washing buffer. All the wells were completely emptied at the end of washing from any liquid. 100 μl of substrate solution (hydrogen peroxide and tetramethylbenzidine in a buffered solution) was added to each well and the plate was incubated at room temperature for 15 minutes. 100 μl of stop solution (freshly prepared 1N H2SO4) was added to each well in the same order as substrate. The plate was gently mixed and absorbance was read at 450 nm.

human skin keratinocytes = assay: Keratinocyte proliferation, 96-well Cell Titer 96 assay; format: cell-based; conditions: for Cell Proliferation, Mean (absorbance at 490 nm) / Cell Proliferation, Median (absorbance at 490 nm): 48 hours, n=5
Experimental: The proliferative response of these human skin keratinocytes to the test compounds was measured in a 96-well assay system using keratinocyte basal medium (KBM, Clonetics, catalog number CC-3103) as a control. […] In addition, 100 μl of vehicle KBM was added to 5 wells as control. […] The spectrophotometric absorbance of each well was read at 490 nm.

[3] = system: Human cervical epithelial cells (ME-180); assay: ME-180 cell growth with jasmonic acid (hemocytometer counting); format: cell-based; conditions: 1, 10 and 100 μg/ml, two days
Experimental: Human cervical epithelial cells (ME-180, ATCC) were propagated in culture at 37° C. using 5% CO2 in McCoy's 5A media (Invitrogen) with 10% heat-inactivated fetal bovine serum (Invitrogen). Jasmonic acid (Sigma) was diluted in the ME-180 media to 100, 10, and 1 microgram/mL.
ME-180 cells were plated in 12-well plates at a concentration of 5×10^4 cells per well in 2 mL of media. The cells were allowed to grow for 1 day. Cells in three wells were counted by trypsinizing and using a hemocytometer to determine cell number on day zero. The media was removed from all other wells and was replaced with fresh media, 100, 10, or 1 μg/mL jasmonic acid-containing media (2 mL) in triplicate. Cells were counted on days 1 and 2 to determine the effect of the jasmonic acid on cell growth.

Compound: CC/C=C\C[C@H]1C(=O)CC[C@@H]1CC(=O)O [jasmonic acid]
- skin irritation or redness (stratum corneum; human, in vivo): no visible sign of any skin irritation or redness
- RENEWAL, time for cell renewal of treated skin (stratum corneum; individual patients (one value per patient #), 0.25% in hyaluronic acid (0.5% aqueous solution), topical twice daily, upper inner arm, listed as JA): 16 Days and 15 Days (2×) and 17 Days and 14 Days and 11 Days and 12 Days (2×)
- faster cell renewal rate over control (stratum corneum; overall, 0.25% topical, vs untreated arm): 28%
- reduction in time required for cell renewal vs untreated control (stratum corneum; vs volunteers' control without treatment): about 28%
- Collagen Production, Mean (absorbance at 450 nm) ([1]; 1×10^−4 M): 0.8040
- Collagen Production, Median (absorbance at 450 nm) ([1]; 1×10^−4 M): 0.8040
- collagen production in human fibroblasts (summary in words) ([1]; 1×10^−4 to 1×10^−6 M): stimulate collagen production
- Collagen Production, Mean (absorbance at 450 nm) ([1]; 1×10^−5 M): 0.7895
- Collagen Production, Median (absorbance at 450 nm) ([1]; 1×10^−5 M): 0.7895
- Collagen Production, Mean (absorbance at 450 nm) ([1]; 1×10^−6 M): 0.7475
- Collagen Production, Median (absorbance at 450 nm) ([1]; 1×10^−6 M): 0.7475
- fibronectin production, Mean (absorbance at 450 nm) ([2]; 1×10^−4 M): 0.2060
- fibronectin production, Median (absorbance at 450 nm) ([2]; 1×10^−4 M): 0.2060
- fibronectin production, Mean (absorbance at 450 nm) ([2]; 1×10^−5 M): 0.2025
- fibronectin production, Median (absorbance at 450 nm) ([2]; 1×10^−5 M): 0.2025
- fibronectin production, Mean (absorbance at 450 nm) ([2]; 1×10^−6 M): 0.1955
- fibronectin production, Median (absorbance at 450 nm) ([2]; 1×10^−6 M): 0.1955
- fibronectin production in human fibroblasts (summary in words) ([2]; all concentrations tested, vs control): effective
- Cell Proliferation, Mean (absorbance at 490 nm) (human skin keratinocytes; 1×10^−4 M): 0.5732
- Cell Proliferation, Median (absorbance at 490 nm) (human skin keratinocytes; 1×10^−4 M): 0.5860
- cell proliferating activity on human keratinocytes (summary in words) (human skin keratinocytes; 1×10^−4 to 1×10^−6 M): strong cell proliferating activity
- Cell Proliferation, Mean (absorbance at 490 nm) (human skin keratinocytes; 1×10^−5 M): 0.7628
- Cell Proliferation, Median (absorbance at 490 nm) (human skin keratinocytes; 1×10^−5 M): 0.7750
- Cell Proliferation, Mean (absorbance at 490 nm) (human skin keratinocytes; 1×10^−6 M): 0.7734
- Cell Proliferation, Median (absorbance at 490 nm) (human skin keratinocytes; 1×10^−6 M): 0.7970
- ME-180 epithelial cell growth (FIGS. 8 and 9) [3]: increased cell growth in a dose dependent manner
